Measurements as given in publication PMC3545992, “Trisubstituted Pyrazolopyrimidines as Novel Angiogenesis Inhibitors” (PLoS ONE, 2013).

What was measured:
[1] = system: chorioallantoic membrane (CAM); assay: Chorioallantoic membrane (CAM) assay, VEGF-induced vessel formation; format: in vivo, white leghorn; settings: 250 nmol compound with 2.5 ng VEGF per cellulose disc, 24 h
Method: Fertilized white leghorn eggs were incubated for 72 h at 37°C in humidified atmosphere. After transferring the growing embryo into Petri dishes, a second incubation period of 72 h followed. At day 6, cellulose discs with 2.5 ng VEGF/250 nmol compound were placed on the membrane. 2.5 ng VEGF/DMSO was used as control. Pictures were taken after 24 h of stimulation. Representative images out of at least three experiments are shown.
Fertilized white leghorn eggs were incubated for 72 h at 37°C in humidified atmosphere. After transferring the growing embryo into a Petri dish, a second incubation period of 72 h followed. At day 6, two cellulose discs, one with 2.5 ng VEGF (VEGF 165, human recombinant from PeproTech GmbH, Hamburg, Germany)/250 nmol compound and the other with 2.5 ng VEGF/DMSO as control were placed on one CAM. After 24 h of stimulation, the vascular structure in the stimulated areas of the CAM was visualized using a stereomicroscope and a CCD camera (Olympus, Munich, Germany) and pictures were taken. The cellulose disks were produced as follows: after preparing a cellulose solution (2.5% hydroxyethyl cellulose, 2% polyvinylpyrrolidone (PVP 17), 2% polyethylene glycol (PEG 400) in water), the mixture was autoclaved, resulting in a homogenized, clear solution. For each disk, 200 μl of the warm solution were filled into the preformed circles of the lid of a 96 well plate and allowed to polymerize under a laminar air flow for 48 h. Finally, the cellulose disks were removed using tweezers and stored in a sterile Petri dish until use.

HUVECs [2] = assay: Scratch assay (migration assay); format: cell-based, human; settings: 10 µM, 16 h, HUVECs
Method: A: HMEC-1 cells were seeded in the same density as for the proliferation assay and treated with the respective compound at 30 µM for 72 h to test whether reduced cell numbers in the proliferation assay are due to inhibition of proliferation or to excessive cell death. No increase of detached, obviously dead or propidium iodide positive cells was detected. B and C: Confluent layers of HUVECs were scratched and the cells were allowed to migrate for 16 h in the presence or absence of 10 µM of the compounds. B: The columns indicate the area re-covered by migrating cells (n = 3, mean ± SEM, * p<0.05, One Way ANOVA, Dunnett). C: Scratches at endpoint, representative images taken out of three experiments.
HUVECs were seeded into a 24-well plate. After reaching confluency, cells were scratched using a 100 µl pipette tip. The wounded monolayers were washed twice with PBS containing Ca^2+/Mg^2+; then growth medium containing the indicated concentration of the compounds was added. After 16 h of migration, cells were washed and subsequently fixed with 4% paraformaldehyde. […] Images were taken using the TILLvisON system (TILL Photonics GmbH, Gräfelfing, Germany) and a CCD-camera connected to an Axiovert 200 microscope (Zeiss, Oberkochen, Germany). Quantitative image analysis of the cell covered area was done by Wimasis GmbH, Munich. A completely closed scratch was set as 100% migration, the area of the original open scratch was set as 0% migration.

HUVECs [3] = assay: Cell viability assay (CellTiter-Blue) in confluent HUVECs; format: cell-based, human; settings: 30 µM, 16 h
Method: Figure 2 Cdk5 is expressed in HUVECs and HMEC-1 cells, and the compounds are not cytotoxic to endothelial cells at concentrations used in functional assays. A: Cdk5 protein expression in endothelial cells in comparison to human cortex. Cdk5 protein amount was analyzed by Western blot in samples of human cortex (HC), confluent HUVECs (HU) and HMEC-1 (HM). β-actin served as a loading control and for normalization of protein amount. Relative quantification (left panel) and one representative image (right panel) of three individual blots are shown. Note the much lower protein loading in the HC sample in the right panel. (n = 3, mean ± SEM, p>0.05, One Way ANOVA, Dunnett). B: Confluent HUVECs were treated for 16 h with 10 or 30 µM of the indicated compounds or left untreated as control. After addition of CellTiter-BlueTM Reagent, cells were incubated for 4 h and fluorescence was measured at 560 nm (n = 3, mean ± SEM, * p<0.05, One Way ANOVA, Dunnett).
HUVECs were seeded in 96-well plates. After reaching confluency, the cells were treated for 16 h with the indicated compounds or left untreated as control. After addition of CellTiter-Blue^TM Reagent (Promega Corporation, Madison, WI, USA), cells were incubated for additional 4 h and fluorescence was measured at 560 nm in a plate-reading photometer (SpectraFluor Plus; Tecan, Crailsheim, Germany).

HUVECs [4] = assay: Tube formation assay on Matrigel; format: cell-based, human; settings: 10 µM, 16 h
Method: Figure 6 LGR 1404, 1406 and 1407 inhibit tube formation at 10 µM. HUVECs were seeded onto a matrix of growth-factor reduced Matrigel^TM in the presence or absence of the respective concentration of the compounds. After 16 h of incubation, images were taken and tube characteristics were quantified. A: Number of tubes (n = 3, mean ± SEM, * p<0.05, One Way ANOVA, Dunnett). B: Number of branching points (n = 3, mean ± SEM, * p<0.05, One Way ANOVA, Dunnett). C: Tube total length (n = 3, mean ± SEM, * p<0.05, One Way ANOVA, Dunnett). D: Representative images of the tube formation assay and the software based tube recognition (structures identified as tubes are blue) in a control (Co, left panel) and after treatment with LGR 1406 (10 µM, right panel).
Pre-cooled BD Matrigel^TM Matrix Growth Factor Reduced (GFR) (BD Biosciences, Heidelberg, Germany) was filled into the lower compartment of μ-slide Angiogenesis wells (ibidi GmbH, Martinsried, Germany) on ice. For polymerization of the Matrigel^TM Matrix, the slides were incubated at 37°C for 30 min. 12,000 HUVECs/well were seeded onto the Matrigel^TM and stimulated for 16 h. The extent of tube formation was determined by light microscopy using the TILLvisON system. Quantitative image analysis of tube length, number of branching points and tube number was performed with a software tool from Wimasis GmbH, Munich.

Compound	VEGF-induced vessel formation [1]	effect on endothelial cell migration (in words) (HUVECs [2])	reduction of endothelial cell migration (HUVECs [2]) [%]	cell viability in comparison to control (HUVECs [3])	reduction of total tube length (HUVECs [4])	tube and branching point numbers and total tube length (in words) (HUVECs [4])	reduction of number of branching points (HUVECs [4]) [%]	reduction of tube number (HUVECs [4])	reduction of total tube length (HUVECs [4]; listed as LGR1407) [%]
CC[C@H](CO)Nc1nc(NCc2ccccc2)c2n[nH]c(C(C)C)c2n1 [LGR 1404, 7-Benzylamino-5(R)-[(1-hydroxymethyl)propylamino]-3-isopropyl-1(2)H-pyrazolo[4,3-d]pyrimidine]	completely inhibit	significantly decrease	27	weak but significant decrease of viability	25%	significant reduction			
CC(C)c1n[nH]c2c(NCc3ccccc3)nc(NC3CCCCC3N)nc12 (centres unmarked) [LGR 1406, 5-[(2-E/Z-aminocyclohexyl)amino]-7-benzylamino-3-isopropyl-1(2)H-pyrazolo[4,3-d]pyrimidine]	completely inhibit	significantly decrease	51	weak but significant decrease of viability	56%	significant reduction	56	42%	
CC(C)c1n[nH]c2c(NCc3ccccc3)nc(NC3CCC(N)CC3)nc12 (centres unmarked) [LGR 1407, 5-[(4-E-aminocyclohexyl)amino]-7-benzylamino-3-isopropyl-1(2)H-pyrazolo[4,3-d]pyrimidine]	completely inhibit	significantly decrease	31	weak but significant decrease of viability	about 30%	significant reduction	35	about 30%	30
